Measurements: patent US7989629B2, “3-(4-{ [4-(4-{ [3-(3, 3-dimethyl-1-piperidinyl) propyl] oxy} phenyl)-1-piperidinyl] carbonyl}-1-naphthalenyl) propanoic or propenoic acid as H1 and H3 receptor antagonists for the treatment of inflammatory and/or allergic disorders” (Glaxo Group Limited, priority 2005, dated 2011)

Columns and labels:
Rat pharmacokinetics = assay type: in vivo
Description: Compounds are dosed to male CD Sprague Dawley rats by single intravenous or oral administration at a nominal dose level of 1 mg/kg and 3 mg/kg respectively. Compounds are formulated in 5% DMSO/45% PEG200/50% water. An intravenous profile is obtained by taking serial or terminal blood samples at 0.083, 0.25, 0.5, 1, 2, 4, and 7 hours post dose (for some studies 12 and 24 hour samples may be taken). An oral profile is obtained by taking serial or terminal blood samples at 0.25, 0.5, 1, 2, 4, 7 and 12 hours post dose (for some studies 24 and 30 hour samples may be taken). Blood samples are taken directly into heparinised tubes. Blood samples are prepared by protein precipitation and subjected to quantitative analysis by LC-MS/MS using compound-specific mass transitions. Drug concentration-time profiles are generated and non-compartmental PK analysis used to generate estimates of half-life, clearance, volume of distribution and oral bioavailability.

human H1 receptor [1] = target: T1, human H1 receptor (Homo sapiens, UniProt P35367); test: Histamine H1 functional antagonist assay (FLIPR): determination of functional pKi values; assay type: cell-based; conditions: functional antagonism, CHO cells, histamine at EC80; read-out: average pKi (pKb) at H1 (converted)
From the text: H1 Receptor Cell Line Generation and FLIPR Assay Protocol
1. Generation of Histamine H1 Cell Line
(§1) The human H1 receptor may be cloned using known procedures described in the literature [Biochem. Biophys. Res. Commun., 201(2):894 (1994)]. Chinese hamster ovary (CHO) cells stably expressing the human H1 receptor may be generated according to known procedures described in the literature [Br. J. Pharmacol., 117(6):1071 (1996)].
Histamine H1 Functional Antagonist Assay: Determination of Functional pKi Values […]
10 μl of test compound, diluted to the required concentration in Tyrodes buffer+probenecid (or 10 μl Tyrodes buffer+probenecid as a control) is added to each well and the plate incubated for 30 min at 37° C., 5% CO2. The plates are then placed into a FLIPR™ (Molecular Devices, UK) to monitor cell fluorescence (λex=488 nm, λEM=540 nm) in the manner described in Sullivan et al., (In: Lambert D G (ed.), Calcium Signaling Protocols, New Jersey: Humana Press, 1999, 125-136) before and after the addition of 10 μl histamine at a concentration that results in the final assay concentration of histamine being EC80.
Functional antagonism is indicated by a suppression of histamine induced increase in fluorescence, as measured by the FLIPR™ system (Molecular Devices). By means of concentration effect curves, functional affinities are determined using standard pharmacological mathematical analysis.

histamine H3 receptor = histamine H3 receptor (Homo sapiens, UniProt Q9Y5N1); test: Histamine H3 functional antagonist assay (GTPγS); assay type: biochemical; conditions: functional antagonism, histamine at EC80; read-out: average pKi (pKb) at H3 (converted)
From the text: 2. H3 Receptor Cell Line Generation, Membrane Preparation and Functional GTPγS Assay Protocols
Generation of Histamine H3 Cell Line
The histamine H3 cDNA is isolated from its holding vector, pcDNA3.1 TOPO (InVitrogen), by restriction digestion of plasmid DNA with the enzymes BamH1 and Not-1 and ligated into the inducible expression vector pGene (InVitrogen) digested with the same enzymes. The GeneSwitch™ system (a system wherein transgene expression is switched off in the absence of an inducer and switched on in the presence of an inducer) is performed as described in U.S. Pat. Nos. 5,364,791; 5,874,534; and 5,935,934. […]
10-14 days post selection, 10 nM Mifepristone (InVitrogen) is added to the culture medium to induce the expression of the receptor. […] Receptor bound antibody is detected by incubation of the cells for 60 min on ice with a goat anti rabbit antibody, conjugated with Alexa 488 fluorescence marker (Molecular Probes). Following two further washes with Sorting Medium, cells are filtered through a 50 μm Filcon™ (BD Biosciences) and are then analysed on a FACS Vantage SE Flow Cytometer fitted with an Automatic Cell Deposition Unit, Control cells are non-induced cells treated in a similar manner. […]

Dog pharmacokinetics = assay type: in vivo; conditions: combined data for Example 1 and 3; for half-life / bioavailability: male, Beagle, whole blood; for bioavailability: po, 2 mg/kg
Description: Compounds are dosed to male Beagle dogs by single intravenous or oral administration at a nominal dose level of 1 mg/kg and 2 mg/kg respectively. The study is carried out according to a crossover design such that the same dog is used for both dosing events and the dosing events occurred 1 week apart. Compounds are formulated in 5% DMSO/45% Peg200/50% water. An intravenous profile is obtained by taking serial blood samples at 0.083, 0.25, 0.5, 0.75, 1, 2, 4, 6 and 12 hr post dose (for some studies 24 hour samples may be taken). An oral profile is obtained by taking serial blood samples at 0.25, 0.5, 0.75, 1, 2, 4, 6, 12 and 24 hr post dose. Blood samples are taken directly into heparinised tubes. Blood samples are prepared by protein precipitation and subjected to quantitative analysis by LC-MS/MS using compound-specific mass transitions. Drug concentration-time profiles are generated and non-compartmental PK analysis used to generate estimates of half-life, clearance, volume of distribution and oral bioavailability.

histamine-induced wheals = test: In vivo anti-inflammatory wheal and flare model; design: species or system guinea pig
Description: In Vivo Anti-Inflammatory Wheal and Flare Model
Male Dunkin-Hartley guinea pigs 500 g-1 kg are dosed with test compound or vehicle using a 1 ml syringe into the oral cavity (0.5 ml/kg p.o.), or via a marginal ear vein (0.33 ml/kg i.v.). Compounds are formulated in 5% DMSO/45% PEG200/50% water.
Either 2 hr after oral or 15 min after intravenous compound administration, guinea pigs are anaesthetised with isoflurane (5%, […] O2), and receive Evans blue solution (2% in saline), 0.33 ml/kg i.v. via a marginal ear vein.
Immediately after Evans blue administration, and whilst still under isoflurane, animals are placed in a prone position, and an area of the back shaved. […]
Following histamine challenge, the animals are allowed to recover from anaesthesia and, 30 minutes later are euthanased with an i.p. overdose of pentobarbitone. The dorsal skin is carefully removed and wheal areas (stained blue) measured from the inner skin surface by taking two perpendicular diameters using engineer's calipers, and calculating the average radius. This value is used to calculate the area of each wheal, and the mean value of all histamine-induced wheals is subsequently calculated for each animal. […]
Dose-response curves are constructed for each test compound and ID50 values may be determined for each route of administration (oral and intravenous).

human H1 receptor [2] = target: T1, human H1 receptor; test: Histamine H1 functional antagonist assay (FLIPR): determination of antagonist pA2; assay type: cell-based
Description: as §1
Histamine H1 Functional Antagonist Assay: Determination of Antagonist pA2
The histamine H1 receptor expressing CHO cells is seeded into non-coated black-walled clear bottom 96-well tissue culture plates as described above. […]
The plates are then placed into a FLIPR™ (Molecular Devices, UK) to monitor cell fluorescence (λex=488 nm, λEM=540 nm) in the manner described in Sullivan et al., (In: Lambert D G (ed.), Calcium Signaling Protocols, New Jersey: Humana Press, 1999, 125-136) before and after the addition of 50 μl histamine over a concentration range of 1 mM-0.1 nM. […] The antagonist pA2 is calculated using the following standard equation: pA2=log(DR−1)−log [B] where DR=dose ratio, defined as EC50antagonist-treated/EC50control and [B]=concentration of antagonist.

T1 sequence (P35367 whole entry): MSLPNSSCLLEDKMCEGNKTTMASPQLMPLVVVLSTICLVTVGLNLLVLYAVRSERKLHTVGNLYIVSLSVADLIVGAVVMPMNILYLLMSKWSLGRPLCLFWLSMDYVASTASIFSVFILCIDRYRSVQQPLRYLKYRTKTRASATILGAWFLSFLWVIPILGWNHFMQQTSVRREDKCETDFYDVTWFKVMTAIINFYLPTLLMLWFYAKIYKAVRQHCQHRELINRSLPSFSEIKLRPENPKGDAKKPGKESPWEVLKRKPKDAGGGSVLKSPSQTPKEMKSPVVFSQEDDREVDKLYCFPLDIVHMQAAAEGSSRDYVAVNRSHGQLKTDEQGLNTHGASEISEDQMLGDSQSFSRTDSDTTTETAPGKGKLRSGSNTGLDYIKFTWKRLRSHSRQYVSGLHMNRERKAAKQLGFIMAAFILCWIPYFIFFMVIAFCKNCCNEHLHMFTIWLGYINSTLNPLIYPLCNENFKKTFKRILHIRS
histamine H3 receptor, sequence (Q9Y5N1 whole entry, species assumed): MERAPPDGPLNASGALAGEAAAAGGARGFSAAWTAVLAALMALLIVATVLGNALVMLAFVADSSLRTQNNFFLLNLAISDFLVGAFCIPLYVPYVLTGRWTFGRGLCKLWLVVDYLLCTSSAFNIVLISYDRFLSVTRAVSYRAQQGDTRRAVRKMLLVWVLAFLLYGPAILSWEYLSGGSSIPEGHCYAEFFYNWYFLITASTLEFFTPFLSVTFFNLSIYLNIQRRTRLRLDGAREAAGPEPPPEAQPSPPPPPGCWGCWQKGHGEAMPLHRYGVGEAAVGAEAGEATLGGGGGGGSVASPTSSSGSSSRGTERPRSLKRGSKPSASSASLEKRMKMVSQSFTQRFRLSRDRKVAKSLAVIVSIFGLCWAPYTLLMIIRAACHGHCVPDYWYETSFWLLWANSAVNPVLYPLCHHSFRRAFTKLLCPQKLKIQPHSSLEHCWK

Row | Compound | plasma clearance (Rat pharmacokinetics) | half-life (Rat pharmacokinetics; male, CD Sprague Dawley, whole blood, 1 mg/kg, IV route) [h] | bioavailability (Rat pharmacokinetics; male, CD Sprague Dawley, whole blood, po, 3 mg/kg) [%] | Ki (human H1 receptor [1]) [nM] | Ki (histamine H3 receptor) [nM] | plasma clearance (Dog pharmacokinetics) | half-life (Dog pharmacokinetics) [h] | bioavailability (Dog pharmacokinetics) [%] | ID50 in the wheal and flare model (histamine-induced wheals; i.v.) | ID50 in the wheal and flare model (histamine-induced wheals; oral) | Kb (human H1 receptor [2]) [nM]
1 | CC1(C)CCCN(CCCOc2ccc(C3CCN(C(=O)c4ccc(CCC(=O)O)c5ccccc45)CC3)cc2)C1 [Example 1, 3-(4-{[4-(4-{[3-(3,3-dimethyl-1-piperidinyl)propyl]oxy}phenyl)-1-piperidinyl]carbonyl}-1-naphthalenyl)propanoic acid, formic acid (1:1)] | low | 4 to 5 | ~59 | ~15.8 | ~39.8 | low | ~3 | ~60 | – | – | –
2 | CC1(C)CCCN(CCCOc2ccc(C3CCN(C(=O)c4ccc(CCC(=O)O)c5ccccc45)CC3)cc2)C1.Cl [Example 3, 3-(4-{[4-(4-{[3-(3,3-dimethyl-1-piperidinyl)propyl]oxy}phenyl)-1-piperidinyl]carbonyl}-1-naphthalenyl)propanoic acid, hydrochloride salt] | – | – | – | ~12.6 | ~50.1 | low | ~3 | ~60 | about 0.6 mg/Kg | about 2.8 mg/Kg | ~7.94
